According to ChEMBL document CHEMBL1128168, “An efficient synthesis of the benzhydrylpiperazine delta opioid agonist (+)-BW373U86” (Bioorg Med Chem Lett, 1995):

Molecular target: Delta-type opioid receptor (Homo sapiens) (UniProt P41143)
Assay: Compound was tested for delta-opioid receptor agonistic activity;A - found to be highly selective
Format: functional
Conditions: filed as agonist

Delta-type opioid receptor (Homo sapiens), sequence (P41143 whole entry): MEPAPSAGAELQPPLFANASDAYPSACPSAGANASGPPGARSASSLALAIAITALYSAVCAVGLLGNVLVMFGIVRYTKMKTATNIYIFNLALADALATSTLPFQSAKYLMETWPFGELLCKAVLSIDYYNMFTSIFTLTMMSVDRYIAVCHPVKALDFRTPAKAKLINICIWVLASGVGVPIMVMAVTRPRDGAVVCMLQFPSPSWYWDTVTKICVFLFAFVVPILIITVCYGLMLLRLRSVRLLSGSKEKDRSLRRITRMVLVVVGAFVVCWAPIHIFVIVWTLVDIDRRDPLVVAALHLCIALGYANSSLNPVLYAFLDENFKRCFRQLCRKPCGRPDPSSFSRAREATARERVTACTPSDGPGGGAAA

C=CCN1C[C@H](C)N([C@H](c2ccc(C(=O)N(CC)CC)cc2)c2cccc(O)c2)C[C@H]1C
Activity: Agonist
